Experimental data from patent US11332503B2, “Peptides for treatment and prevention of hyperglycaemia” (UNIVERSITE DE STRASBOURG, priority 2017, dated 2022).
Positions of bridges follow the written chain, without caps; N, C: chain ends. Non-standard residues stand in square brackets, D forms with d. R8 = C=CCCCCCC[C@@](C)(N)C(=O)O; S5 = C=CCCC[C@](C)(N)C(=O)O

System: human primary adipocytes
Assay: In vitro 2-deoxy-D-glucose-6-phosphate (DG6P) uptake in human primary adipocytes
Type: cell-based
Procedure: Human white visceral preadipocytes (Catalog #: C-12732; PromoCell) were purchased. The preadipocytes were seeded according to manufacturer's protocol and cultured in the Preadipocyte growth medium (Catalog #: C-27410; PromoCell) to confluence. Once confluence was reached, adipogenic differentiation was triggered through medium change to get mature human adipocytes. For the culture without insulin, Adipocyte Basal Medium (Catalog #: C-2431; PromoCell) without insulin was complemented with 5 g/L of […], 8 μg/mL d-Biotin, 400 ng/mL Dexamethasone (following manufacturer's procedure). Native peptides and their stapled counterparts as well as the scrambled peptides (corresponding to the same set of amino acids but rearranged randomly) were purchased from Eurogentec. Each peptide was diluted in saline and used at a dose of 2.5 ng per 10 cm square of cell culture surface area for in vitro studies or 2.5 ng of each peptide (A and B) was injected per mouse.
Mature adipocytes were cultured in 96 well plate. The adipocytes received the different peptides at the indicated concentration above. 24 hours later, the glucose absorption capacity if the treated cells were assessed using the Glucose Uptake Colorimetric Assay kit from Bio Vision (Catalog #: K676-100).
In vivo assessment of the effect of stapled peptides A and B injection in the adipose tissue of diet-induced diabetic WT mice. Mice were fed with a defined high fat/high glucose diet until they became intolerant to glucose (FIG. 5A, Prior Injection). Once the mice were glucose intolerant, these mice received an injection with a combination of the stapled peptides A and B directly in the subcutaneous fat and GTT was again performed a week later as depicted in FIG. 5B. […] FIG. 5C depicts pictures of the adipose tissue which received a combination of the stapled peptides A and B labelled with FAM (green dots indicated with the white arrows). […] A variety of modified stapled peptides were designed to test the effect of modifying the peptide sequence on insulin-independent glucose uptake into adipocytes. Peptides were obtained from CPC Scientific. Additional in vitro 2-deoxy-D-glucose-6-phosphate (DG6P) uptake results in human primary adipocytes for individual peptides of the present technology are provided in Tables 1-3.

[1] = Table 2 dose response, 0.001 μM

+Insulin: insulin-treated adipocytes, positive control of the DG6P uptake assay [reference compound]
2-DG6P (Table 1, +Insulin control): 94.2 pmol | 2-DG6P compared to -Insulin (%) (Table 1, +Insulin control): 312.6% | 2-DG6P (Table 2, +Ins control): 79.3 pmol | 2-DG6P compared to -Insulin (%) (Table 2, +Ins control): 363.3% | 2-DG6P (Table 3, +Insulin control): 87.9 pmol | 2-DG6P compared to -Insulin (%) (Table 3, +Insulin control): 639.6%

H-VECT(AAH)-R8-EKRVLA-S5-LDKPPFLTQLHS-OH [AT018]
2-DG6P (Table 1, peptides at 50 μM): 28.2 pmol | 2-DG6P compared to -Insulin (%) (Table 1, peptides at 50 μM): 93.5%

H-VECTM-S5-EKR-S5-LALLDKPPFLTQLHS-OH [AT008]
2-DG6P (Table 1, peptides at 50 μM): 53.3 pmol | 2-DG6P compared to -Insulin (%) (Table 1, peptides at 50 μM): 177.0%

H-LPHET-R8-RLSQKV-S5-TKLDCLMFVEPA-OH [AT004] (H-LPHET[R8]RLSQKV[S5]TKLDCLMFVEPA-OH; staple 6-13; SMILES CSCC[C@H](NC(=O)[C@H](CC(C)C)NC(=O)[C@H](CS)NC(=O)[C@H](CC(=O)O)NC(=O)[C@H](CC(C)C)NC(=O)[C@H](CCCCN)NC(=O)[C@@H](NC(=O)[C@]1(C)CCCC=CCCCCCC[C@@](C)(NC(=O)[C@@H](NC(=O)[C@H](CCC(=O)O)NC(=O)[C@H](Cc2c[nH]cn2)NC(=O)[C@@H]2CCCN2C(=O)[C@@H](N)CC(C)C)[C@@H](C)O)C(=O)N[C@@H](CCCNC(=N)N)C(=O)N[C@@H](CC(C)C)C(=O)N[C@@H](CO)C(=O)N[C@@H](CCC(N)=O)C(=O)N[C@@H](CCCCN)C(=O)N[C@@H](C(C)C)C(=O)N1)[C@@H](C)O)C(=O)N[C@@H](Cc1ccccc1)C(=O)N[C@H](C(=O)N[C@@H](CCC(=O)O)C(=O)N1CCC[C@H]1C(=O)N[C@@H](C)C(=O)O)C(C)C) [reference compound]
2-DG6P (Table 1, peptides at 50 μM): 29.5 pmol | 2-DG6P compared to -Insulin (%) (Table 1, peptides at 50 μM): 98.0%

H-VECTM-R8-EKRVLA-S5-LDKPPFLTQLHS-OH [AT001]
2-DG6P (Table 1, peptides at 50 μM): 44.2 pmol | 2-DG6P compared to -Insulin (%) (Table 1, peptides at 50 μM): 146.8% | 2-DG6P [1]: 19.9 pmol | 2-DG6P compared to -Insulin (%) [1]: 91.2% | 2-DG6P (Table 2 dose response, 0.01 μM): 21.3 pmol | 2-DG6P compared to -Insulin (%) (Table 2 dose response, 0.01 μM): 97.5% | 2-DG6P (Table 2 dose response, 0.1 μM): 22.3 pmol | 2-DG6P compared to -Insulin (%) (Table 2 dose response, 0.1 μM): 102.0% | 2-DG6P (Table 2 dose response, 1 μM): 23.9 pmol | 2-DG6P compared to -Insulin (%) (Table 2 dose response, 1 μM): 109.6% | 2-DG6P (Table 2 dose response, 10 μM): 31.7 pmol | 2-DG6P compared to -Insulin (%) (Table 2 dose response, 10 μM): 145.2% | 2-DG6P (Table 2 dose response, 100 μM): 47.2 pmol | 2-DG6P compared to -Insulin (%) (Table 2 dose response, 100 μM): 216.1%

H-VECTM-R8-EKRVLA-S5-LDKPPFLTQLHS-NH2 [AT003]
2-DG6P (Table 1, peptides at 50 μM): 46.2 pmol | 2-DG6P compared to -Insulin (%) (Table 1, peptides at 50 μM): 153.3%

H-VE(AAB)TM-R8-EKRVLA-S5-LDKPPFLTQLHS-OH [AT017]
2-DG6P (Table 1, peptides at 50 μM): 55.4 pmol | 2-DG6P compared to -Insulin (%) (Table 1, peptides at 50 μM): 184.0%

H-VECTM-R8-EKRVLA-S5-LDKPPF-OH (H-VECTM[R8]EKRVLA[S5]LDKPPF-OH; staple 6-13; SMILES CSCC[C@H](NC(=O)[C@@H](NC(=O)[C@H](CS)NC(=O)[C@H](CCC(=O)O)NC(=O)[C@@H](N)C(C)C)[C@@H](C)O)C(=O)N[C@]1(C)CCCCCCC=CCCC[C@@](C)(C(=O)N[C@@H](CC(C)C)C(=O)N[C@@H](CC(=O)O)C(=O)N[C@@H](CCCCN)C(=O)N2CCC[C@H]2C(=O)N2CCC[C@H]2C(=O)N[C@@H](Cc2ccccc2)C(=O)O)NC(=O)[C@H](C)NC(=O)[C@H](CC(C)C)NC(=O)[C@H](C(C)C)NC(=O)[C@H](CCCNC(=N)N)NC(=O)[C@H](CCCCN)NC(=O)[C@H](CCC(=O)O)NC1=O) [AT014]
2-DG6P (Table 1, peptides at 50 μM): 58.8 pmol | 2-DG6P compared to -Insulin (%) (Table 1, peptides at 50 μM): 195.1%

H-VECTM-R8-EKRVLA-S5-LDKPPFLTQLHS-OH [AT007]
2-DG6P (Table 1, peptides at 50 μM): 57.7 pmol | 2-DG6P compared to -Insulin (%) (Table 1, peptides at 50 μM): 191.5% | 2-DG6P (Table 2 dose response, 0.1 μM): 23.2 pmol | 2-DG6P compared to -Insulin (%) (Table 2 dose response, 0.1 μM): 106.5% | 2-DG6P (Table 2 dose response, 1 μM): 24.0 pmol | 2-DG6P compared to -Insulin (%) (Table 2 dose response, 1 μM): 110.1% | 2-DG6P (Table 2 dose response, 10 μM): 36.0 pmol | 2-DG6P compared to -Insulin (%) (Table 2 dose response, 10 μM): 165.0% | 2-DG6P (Table 2 dose response, 100 μM): 55.5 pmol | 2-DG6P compared to -Insulin (%) (Table 2 dose response, 100 μM): 254.3%

H-VECTM-R8-EKRVLA-S5-LDKPPFLTQLHS-OH [AT021]
2-DG6P (Table 1, peptides at 50 μM): 37.5 pmol | 2-DG6P compared to -Insulin (%) (Table 1, peptides at 50 μM): 124.6%

H-VECTM-R8-EKRVLA-S5-LDKP-OH (H-VECTM[R8]EKRVLA[S5]LDKP-OH; staple 6-13; SMILES CSCC[C@H](NC(=O)[C@@H](NC(=O)[C@H](CS)NC(=O)[C@H](CCC(=O)O)NC(=O)[C@@H](N)C(C)C)[C@@H](C)O)C(=O)N[C@]1(C)CCCCCCC=CCCC[C@@](C)(C(=O)N[C@@H](CC(C)C)C(=O)N[C@@H](CC(=O)O)C(=O)N[C@@H](CCCCN)C(=O)N2CCC[C@H]2C(=O)O)NC(=O)[C@H](C)NC(=O)[C@H](CC(C)C)NC(=O)[C@H](C(C)C)NC(=O)[C@H](CCCNC(=N)N)NC(=O)[C@H](CCCCN)NC(=O)[C@H](CCC(=O)O)NC1=O) [AT015]
2-DG6P (Table 1, peptides at 50 μM): 35.7 pmol | 2-DG6P compared to -Insulin (%) (Table 1, peptides at 50 μM): 118.6% | 2-DG6P (Table 3 dose response, 1 μM): 16.6 pmol | 2-DG6P compared to -Insulin (%) (Table 3 dose response, 1 μM): 121.0% | 2-DG6P (Table 3 dose response, 10 μM): 28.9 pmol | 2-DG6P compared to -Insulin (%) (Table 3 dose response, 10 μM): 210.6% | 2-DG6P (Table 3 dose response, 100 μM): 39.2 pmol | 2-DG6P compared to -Insulin (%) (Table 3 dose response, 100 μM): 284.9%

H-LPHET-R8-RLSQKV-S5-TKLDCLMFVEPA-OH [AT006] (H-LPHET[R8]RLSQKV[S5]TKLDCLMFVEPA-OH; staple 6-13; SMILES CSCC[C@H](NC(=O)[C@H](CC(C)C)NC(=O)[C@H](CS)NC(=O)[C@H](CC(=O)O)NC(=O)[C@H](CC(C)C)NC(=O)[C@H](CCCCN)NC(=O)[C@@H](NC(=O)[C@]1(C)CCCC=CCCCCCC[C@@](C)(NC(=O)[C@@H](NC(=O)[C@H](CCC(=O)O)NC(=O)[C@H](Cc2c[nH]cn2)NC(=O)[C@@H]2CCCN2C(=O)[C@@H](N)CC(C)C)[C@@H](C)O)C(=O)N[C@@H](CCCNC(=N)N)C(=O)N[C@@H](CC(C)C)C(=O)N[C@@H](CO)C(=O)N[C@@H](CCC(N)=O)C(=O)N[C@@H](CCCCN)C(=O)N[C@@H](C(C)C)C(=O)N1)[C@@H](C)O)C(=O)N[C@@H](Cc1ccccc1)C(=O)N[C@H](C(=O)N[C@@H](CCC(=O)O)C(=O)N1CCC[C@H]1C(=O)N[C@@H](C)C(=O)O)C(C)C) [reference compound]
2-DG6P (Table 1, peptides at 50 μM): 30.7 pmol | 2-DG6P compared to -Insulin (%) (Table 1, peptides at 50 μM): 102.0%

H-LPHET-R8-RLSQKV-S5-TKLDCLMFVEPA-OH [AT005] (H-LPHET[R8]RLSQKV[S5]TKLDCLMFVEPA-OH; staple 6-13; SMILES CSCC[C@H](NC(=O)[C@H](CC(C)C)NC(=O)[C@H](CS)NC(=O)[C@H](CC(=O)O)NC(=O)[C@H](CC(C)C)NC(=O)[C@H](CCCCN)NC(=O)[C@@H](NC(=O)[C@]1(C)CCCC=CCCCCCC[C@@](C)(NC(=O)[C@@H](NC(=O)[C@H](CCC(=O)O)NC(=O)[C@H](Cc2c[nH]cn2)NC(=O)[C@@H]2CCCN2C(=O)[C@@H](N)CC(C)C)[C@@H](C)O)C(=O)N[C@@H](CCCNC(=N)N)C(=O)N[C@@H](CC(C)C)C(=O)N[C@@H](CO)C(=O)N[C@@H](CCC(N)=O)C(=O)N[C@@H](CCCCN)C(=O)N[C@@H](C(C)C)C(=O)N1)[C@@H](C)O)C(=O)N[C@@H](Cc1ccccc1)C(=O)N[C@H](C(=O)N[C@@H](CCC(=O)O)C(=O)N1CCC[C@H]1C(=O)N[C@@H](C)C(=O)O)C(C)C) [reference compound]
2-DG6P (Table 1, peptides at 50 μM): 27.7 pmol | 2-DG6P compared to -Insulin (%) (Table 1, peptides at 50 μM): 92.0%

H-VECTM-R8-EKRVLA-S5-LD-OH (H-VECTM[R8]EKRVLA[S5]LD-OH; staple 6-13; SMILES CSCC[C@H](NC(=O)[C@@H](NC(=O)[C@H](CS)NC(=O)[C@H](CCC(=O)O)NC(=O)[C@@H](N)C(C)C)[C@@H](C)O)C(=O)N[C@]1(C)CCCCCCC=CCCC[C@@](C)(C(=O)N[C@@H](CC(C)C)C(=O)N[C@@H](CC(=O)O)C(=O)O)NC(=O)[C@H](C)NC(=O)[C@H](CC(C)C)NC(=O)[C@H](C(C)C)NC(=O)[C@H](CCCNC(=N)N)NC(=O)[C@H](CCCCN)NC(=O)[C@H](CCC(=O)O)NC1=O) [AT016]
2-DG6P (Table 1, peptides at 50 μM): 51.5 pmol | 2-DG6P compared to -Insulin (%) (Table 1, peptides at 50 μM): 170.9% | 2-DG6P (Table 3 dose response, 1 μM): 23.7 pmol | 2-DG6P compared to -Insulin (%) (Table 3 dose response, 1 μM): 172.4% | 2-DG6P (Table 3 dose response, 10 μM): 38.6 pmol | 2-DG6P compared to -Insulin (%) (Table 3 dose response, 10 μM): 280.6% | 2-DG6P (Table 3 dose response, 100 μM): 51.4 pmol | 2-DG6P compared to -Insulin (%) (Table 3 dose response, 100 μM): 373.7%
